The values below come from US10842849B2, “Methods for promoting neuronal outgrowth by insulin-like growth factor binding protein-like 1 (IGFBPL-1) in glaucoma or leber's optic neuropathy” (The Schepens Eye Research Institute, Inc., priority 2011, dated 2020).

The test system of assay [1] is Retinal ganglion cells (RGCs) isolated from P0 mice. Description: P0 RGC culture: neurite outgrowth and survival. In kind it is cell-based, mouse. Conditions: for effect on IGFBPL-1 induced neurite/axon growth: P0 RGC cultures treated with IGFBPL-1 plus inhibitor or neutralizing antibody; for RGC neurite outgrowth / axonal extension: P0 RGC cultures, 3 days, beta-III-tubulin/Tuj1 immunostaining; for RGC cell survival: P0 RGCs. From the text: The experiments described herein were aimed to elucidate the functional role and mechanisms of IGFBPL-1 on RGC survival and axon extension in mice. The expression pattern of IGFBPL-1 in the developing retina was examined in retinas at different developmental stage, ranging from embryonic day 16 through adult, using immunohistochemistry, western blot and quantitative RT-PCR. Retinal ganglion cells were purified using magnetic beads conjugated with Thy1.2 antibody from new born mouse pups at postnatal day 0 (P0), and cultured for up to five days in the presence or absence of IGFBPL-1 and/or IGF-I proteins. RGC survival and axonal growth were evaluated after three days in culture following LIVE/DEAD® and β-III-tubulin immunostaining. Lentiviral shRNAs were used to knockdown the expression of IGFBPL-1 and/or IGF-I in culture. The functional role of IGFBPL-1 in RGC development was further evaluated in IGFBPL-1 knockout (KO) mouse. RGC morphology and number were recorded using retinal vertical sections or whole-mount preparation. The number of axons in the optic nerve head was counted under electron microscopy. Data collected from the IGFBPL-1 KO mice were compared with that obtained from age-matched wildtype C57BL/6 littermates.
RGC neurite outgrowth in the absence (FIG. 3A) and presence (FIG. 3B) of IGFBPL-1 promotes in RGC cell culture. Retinal ganglion cells (RGCs) isolated from P0 mice were cultured in the absence (control) and presence of IGFBPL-1 (IGFBPL-1) for 3 days and were immunolabeled with primary antibody against a RGC specific marker Tuj1 (red). Note that RGCs extend long neurite in IGFBPL-1-treated cultures as compared to control culture group.

For assay [2], the system named is cultured RGCs derived from P10 mice. Description: P10 RGC culture: axon length and survival. To be noted: for axon length / neurite outgrowth: treated 3 days. It counts as cell-based, mouse. As to the method:
Cells were treated with control, IGF-I, IGFBPL1 or both for 3 days and were immunostained with βIII-tubulin to reveal axons.

The subject of a further assay is mTOR. Description: P10 retina incubation, western blot of phosphorylated mTOR. In kind it is cell-based, mouse. To be noted: P10 retinas incubated 30 min or 6 hours at 37° C. As for the experimental part: (§1) P10 retinas were dissected and incubated with IGF-I, IGFBPL1 and IGF-I+IGFBPL1 for 30 min or 6 hours at 37° C. Retina lysates were prepared for western blotting, using antibodies against IGF-1-mediated downstream signals, mTOR and Akt.

The next assay deals with Akt. Description: P10 retina incubation, western blot of phosphorylated Akt. In kind it is cell-based, mouse. To be noted: P10 retinas incubated 30 min or 6 hours at 37° C. As to the method: as §1
Assay [3] relates to RGC axons after optic nerve crush. Description: Optic nerve regeneration in vivo after optic nerve crush. Conditions: intravitreous delivery, optic nerve crush in mice. The text has this:
IGF-1 ([…]). IGFBPL-1 (n=7). IGF1+IGFBPL1 (n=6).

For a further assay, the system named is hippocampal neurons. Description: Hippocampal neuronal cultures: neurite outgrowth. Conditions: beta III tubulin staining. In kind it is cell-based. The text has this: FIG. 9B are histograms showing quantification of neurite outgrowth in control; and neurons exposed to IGFBPL-1; IGF-1; IGFBPL-1+IGF-1; IGFBPL-1+H1356; IGFBPL-1+Neut. Ab; IGFBPL-1+IGFI-1+Neut. Ab.

For the next assay, the target named is IGF-1 (Mus musculus, UniProt P05017). Description: Co-immunoprecipitation of IGFBPL-1 and IGF-1 (western blot). To be noted: mouse recombinant proteins and retina lysates. In kind it is binding. The text has this:
FIGS. 5(I) A and B and FIGS. 5 (II) A and B are western blots showing binding of IGFBP-1 with IGF-I using mouse recombinant IGFBPL-1 and IGF-1 (FIG. 5(I)) and retina lysates (FIG. 5(II)).
(In general: In western blotting, separated proteins are transferred to a membrane and probed.)

“Also recorded” adds a separate entry of the source.

Sequence of IGF-1 (P05017 1-118 limits assumed): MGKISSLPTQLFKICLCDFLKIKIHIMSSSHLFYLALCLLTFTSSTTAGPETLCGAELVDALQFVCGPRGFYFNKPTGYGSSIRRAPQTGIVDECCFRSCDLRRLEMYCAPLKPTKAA

Turning to `O=C(O)c1cc2cc(O)c(O)cc2c(C(=O)c2ccc(O)c(O)c2)n1` [NBI-31772, reference compound], the “effect on IGFBPL-1 induced neurite/axon growth” value in assay [1] is “abolishes the neurite growth effect of IGFBPL-1”; in assay [1] (listed as inhibitor of IGF-I and IGFBP binding), “abolishes the growth promoting activity of IGFBPL1”.
Take IGF-1: Insulin Growth Factor 1 protein: in assay [1], the “RGC neurite outgrowth / axonal extension” value is “robust neurite outgrowth”; the RGC cell survival result is “promotes both neurite outgrowth and cell survival”. Further, the “RGC neurite outgrowth / axonal extension” value in assay [1] (listed as IGF-I) was “promotes both neurite outgrowth and cell survival”. For the same molecule, in assay [2], the RGC survival entry is “affect the survival” and the “axon length / neurite outgrowth” value is on record as “does not promote neurite outgrowth”. In addition, the “phosphorylation of mTOR” value with mTOR is “increased level of phosphorylated mTOR and Akt”. Besides, in the assay with Akt, the “phosphorylation of Akt” value is “increased level of phosphorylated mTOR and Akt”.

B1: IGFBPL-1: insulin-like growth factor binding protein-like 1 protein; mouse recombinant IGFBPL-1 used in tests (protein)
chain: LGLRDAGRRHPECSPCQQDRCPAPSPCPAPWISARDECGCCARCLGAEGASCGGPVGSRCGPGLVCASRASGTAPEGTGLCVCAQRGAVCGSDGRSYSSICALRLRARHAPRAHHGHLHKARDGPCEFAPVVLMPPRDIHNVTGTQVFLSCEVKAVPTPVITWKKVKHSPEGTEGLEELPGDHVNIAVQVRGGPSDHETTSWILINPLRKEDEGVYHCHAANAIGEAQSHGTVTVLDLNRYKSLYSSVPGDLL
Turning to B1, in assay [1], the “RGC neurite outgrowth / axonal extension” value is given as “significantly promoted axonal extension; also recorded: promotes RGC neurite outgrowth; also recorded: stimulates neurite outgrowth; also recorded: robust neurite outgrowth”; the RGC cell survival entry was “promotes both neurite outgrowth and cell survival”. Also, the “RGC neurite outgrowth / axonal extension” value in assay [1] (listed as IGFBPL1) was “promotes both neurite outgrowth and cell survival”. Further, in assay [3], the “regeneration of RGC axons” value is on record as “significantly promotes the regeneration of RGC axons”. In assay [2], the RGC survival entry is “affect the survival” and the “axon length / neurite outgrowth” value is given as “does not promote neurite outgrowth”. Moreover, the “phosphorylation of mTOR” value in the assay on mTOR is “prolongs the phosphorylation”. Further, the “neurite growth in hippocampal neuronal cultures” value with hippocampal neurons was “induced neurite growth”. In addition, in the assay with IGF-1, the “binding / interaction with IGF-1” value is reported as “directly interacts with IGF-1”.
